Holding throughout (assay type): cell-based
For one assay, the system named is E. faecium 1042. The procedure:
(§1) Standard strains included S. aureus ATCC33592, S. aureus CICC25138, and Salmonella enterica ATCC14028, which were purchased from the China Center of Industrial Culture Collection (CICC). Standard strains including E.coli CMCC44102, Salmonella enterica CMCC50071, and S. aureus CMCC26003 were purchased from the National Center for Medical Culture Collections (CMCC). […] All experiments using the above strains were carried out in a BSL‐2 laboratory. The clinical laboratory of Qilu Hospital detected bacterial resistance to various antibiotics. All strains were streaked on Nutrient Broth (NB) agar medium and incubated overnight at 37°C.
(§2) The antimicrobial activity of the peptides was examined in sterile 96‐well plates using the broth microdilution according to the CLSI standard. The colonies were suspended in saline solution, the turbidity was adjusted to McFarland 0.5 to reach a bacterial concentration of 10^8 CFU/mL, and again diluted 100 times for the inhibition test. Then, 50 µL of bacterial suspension at 1 × 10^6 CFU/mL was incubated with the same volume of different concentrations of peptide solution [serial twofold dilutions in Mueller–Hinton Broth (Hopebio)]. […] All experiments were performed with three independent replicates.

The next assay concerns E. faecium 21. The procedure: as §1, §2
Another assay deals with E.coli 110. The procedure:
as §1, §2

A further assay deals with E.coli 208. As for the experimental part: as §1, §2
A further assay has as its system E.coli CMCC44102. As for the experimental part:
as §1, §2

A further assay relates to K. pneumoniae 7713. As for the experimental part: as §1, §2
The next assay relates to P. aeruginosa 112. As for the experimental part: as §1, §2
For the next assay, the system named is P. aeruginosa 116. As for the experimental part: as §1, §2
A further assay relates to P. aeruginosa 119. As for the experimental part: as §1, §2
In another assay the test system is S. aureus 103. The procedure: as §1, §2
A further assay deals with S. aureus 129. As for the experimental part: as §1, §2
In the next assay the test system is S. aureus ATCC33592. The procedure:
as §1, §2

For another assay, the system named is S. aureus CICC25138. As for the experimental part: as §1, §2
The subject of the next assay is S. aureus CMCC26003. As for the experimental part:
as §1, §2

≈ marks a conversion by molar mass, not a printed value. Residues, ends and D or L forms follow the SMILES beside them.

With `CC(C)[C@H](N)C(=O)N[C@@H](CCCCN)C(=O)N[C@H](C(=O)N[C@@H](Cc1ccccc1)C(=O)N[C@@H](CCCNC(=N)N)C(=O)N[C@@H](Cc1ccccc1)C(=O)N[C@@H](Cc1ccc(O)cc1)C(=O)N[C@@H](Cc1c[nH]c2ccccc12)C(=O)N[C@@H](CCCCN)C(=O)N[C@@H](CCCNC(=N)N)C(=O)N[C@@H](CCCCN)C(=O)N[C@@H](CCC(N)=O)C(=O)N[C@@H](CCCNC(=N)N)C(=O)N[C@@H](Cc1ccccc1)C(N)=O)C(C)C` [QLX-3DV-12] (H-VKVFRFYWKRKQRF-NH2), the “MIC (μg/mL) E. faecium 1042” value against E. faecium 1042 is 2 µg/mL (≈ 1.01 µM). Also, in the assay with E. faecium 21, the “MIC (μg/mL) E. faecium 21” value was determined as 4 µg/mL (≈ 2.01 µM). Moreover, in the assay on E.coli 110, the “MIC (μg/mL) E.coli 110” value was found to be 4 µg/mL (≈ 2.01 µM). The “MIC (μg/mL) E.coli 208” value in the assay with E.coli 208 stood at 8 µg/mL (≈ 4.03 µM). Also, in the assay with E.coli CMCC44102, the “MIC (μg/mL) E.coli CMCC44102” value amounted to 8 µg/mL (≈ 4.03 µM). For the same compound, in the assay on K. pneumoniae 7713, the “MIC (μg/mL) K. pneumoniae 7713” value is 16 µg/mL (≈ 8.05 µM). Besides, the “MIC (μg/mL) P. aeruginosa 112” value against P. aeruginosa 112 came out at 2 µg/mL (≈ 1.01 µM). In addition, in the assay with P. aeruginosa 116, the “MIC (μg/mL) P. aeruginosa 116” value is 8 µg/mL (≈ 4.03 µM). For the same compound, in the assay on P. aeruginosa 119, the “MIC (μg/mL) P. aeruginosa 119” value is 32 µg/mL (≈ 16.1 µM). Further, the “MIC (μg/mL) S. aureus 103” value against S. aureus 103 turned out to be 16 µg/mL (≈ 8.05 µM). In addition, the “MIC (μg/mL) S. aureus 129” value in the assay with S. aureus 129 came to 16 µg/mL (≈ 8.05 µM). In the assay with S. aureus ATCC33592, the “MIC (μg/mL) S. aureus ATCC33592” value is 32 µg/mL (≈ 16.1 µM). The “MIC (μg/mL) S. aureus CICC25138” value in the assay on S. aureus CICC25138 worked out at 32 µg/mL (≈ 16.1 µM). The “MIC (μg/mL) S. aureus CMCC26003” value in the assay with S. aureus CMCC26003 was determined as 2 µg/mL (≈ 1.01 µM).

`CC(C)C[C@H](NC(=O)[C@H](CC(C)C)NC(=O)[C@H](Cc1ccccc1)NC(=O)[C@H](CCCNC(=N)N)NC(=O)[C@H](CCCNC(=N)N)NC(=O)[C@H](CCCNC(=N)N)NC(=O)[C@H](CC(C)C)NC(=O)[C@H](CC(C)C)NC(=O)[C@H](CCCNC(=N)N)NC(=O)[C@H](CCCNC(=N)N)NC(=O)[C@H](CCC(N)=O)NC(=O)[C@H](Cc1c[nH]c2ccccc12)NC(=O)[C@@H](NC(=O)[C@H](CC(C)C)NC(=O)[C@H](CCCNC(=N)N)NC(=O)[C@H](Cc1ccc(O)cc1)NC(=O)[C@@H](N)CCC(N)=O)C(C)C)C(=O)N[C@@H](CCCCN)C(=O)N[C@@H](C)C(N)=O` [QLX-3DV-13] (H-QYRLVWQRRLLRRRFLLKA-NH2): the “MIC (μg/mL) E. faecium 1042” value with E. faecium 1042 came out at 2 µg/mL (≈ 0.778 µM). Besides, the “MIC (μg/mL) E. faecium 21” value in the assay with E. faecium 21 is 4 µg/mL (≈ 1.56 µM). For the same compound, in the assay with E.coli 110, the “MIC (μg/mL) E.coli 110” value was determined as 8 µg/mL (≈ 3.11 µM). Further, the “MIC (μg/mL) E.coli 208” value against E.coli 208 was found to be 16 µg/mL (≈ 6.22 µM). Also, the “MIC (μg/mL) E.coli CMCC44102” value against E.coli CMCC44102 is 4 µg/mL (≈ 1.56 µM). Besides, the “MIC (μg/mL) K. pneumoniae 7713” value with K. pneumoniae 7713 was found to be 64 µg/mL (≈ 24.9 µM). Moreover, in the assay on P. aeruginosa 112, the “MIC (μg/mL) P. aeruginosa 112” value turned out to be 2 µg/mL (≈ 0.778 µM). The “MIC (μg/mL) P. aeruginosa 116” value in the assay on P. aeruginosa 116 was determined as 32 µg/mL (≈ 12.4 µM). The “MIC (μg/mL) P. aeruginosa 119” value against P. aeruginosa 119 turned out to be 16 µg/mL (≈ 6.22 µM). Also, the “MIC (μg/mL) S. aureus 103” value in the assay with S. aureus 103 turned out to be 16 µg/mL (≈ 6.22 µM). For the same compound, the “MIC (μg/mL) S. aureus 129” value against S. aureus 129 is 16 µg/mL (≈ 6.22 µM). Further, the “MIC (μg/mL) S. aureus ATCC33592” value against S. aureus ATCC33592 is 64 µg/mL (≈ 24.9 µM). Also, the “MIC (μg/mL) S. aureus CICC25138” value with S. aureus CICC25138 amounted to 32 µg/mL (≈ 12.4 µM). The “MIC (μg/mL) S. aureus CMCC26003” value in the assay with S. aureus CMCC26003 was found to be 4 µg/mL (≈ 1.56 µM).

Turning to `CC[C@H](C)[C@H](NC(=O)[C@@H](NC(=O)[C@@H](N)CCCCN)C(C)C)C(=O)N[C@@H](CC(N)=O)C(=O)N[C@@H](Cc1ccc(O)cc1)C(=O)N[C@@H](CCCCN)C(=O)N[C@@H](CC(C)C)C(=O)N[C@@H](CCCNC(=N)N)C(=O)N[C@@H](Cc1ccccc1)C(=O)N[C@@H](Cc1ccccc1)C(=O)N[C@@H](Cc1c[nH]c2ccccc12)C(=O)N[C@@H](C)C(=O)N1CCC[C@H]1C(=O)N[C@@H](Cc1c[nH]c2ccccc12)C(=O)N[C@@H](Cc1ccccc1)C(=O)N[C@@H](CCCCN)C(=O)N[C@@H](CCCCN)C(=O)N[C@@H](CC(C)C)C(N)=O` [QLX-3DV-15] (H-KVINYKLRFFWAPWFKKL-NH2), in the assay with E. faecium 1042, the “MIC (μg/mL) E. faecium 1042” value worked out at 4 µg/mL (≈ 1.68 µM). Besides, the “MIC (μg/mL) E. faecium 21” value in the assay on E. faecium 21 was 4 µg/mL (≈ 1.68 µM). In addition, in the assay on E.coli 110, the “MIC (μg/mL) E.coli 110” value was 8 µg/mL (≈ 3.36 µM). In addition, the “MIC (μg/mL) E.coli 208” value in the assay on E.coli 208 amounted to 4 µg/mL (≈ 1.68 µM). Moreover, the “MIC (μg/mL) E.coli CMCC44102” value with E.coli CMCC44102 is 8 µg/mL (≈ 3.36 µM). Besides, the “MIC (μg/mL) K. pneumoniae 7713” value in the assay with K. pneumoniae 7713 is 64 µg/mL (≈ 26.8 µM). For the same compound, in the assay on P. aeruginosa 112, the “MIC (μg/mL) P. aeruginosa 112” value is 4 µg/mL (≈ 1.68 µM). Further, the “MIC (μg/mL) P. aeruginosa 116” value in the assay on P. aeruginosa 116 came to 32 µg/mL (≈ 13.4 µM). Moreover, in the assay with P. aeruginosa 119, the “MIC (μg/mL) P. aeruginosa 119” value was determined as 64 µg/mL (≈ 26.8 µM). The “MIC (μg/mL) S. aureus 103” value with S. aureus 103 was 16 µg/mL (≈ 6.71 µM). Moreover, the “MIC (μg/mL) S. aureus 129” value with S. aureus 129 was found to be 8 µg/mL (≈ 3.36 µM). Also, in the assay with S. aureus ATCC33592, the “MIC (μg/mL) S. aureus ATCC33592” value was found to be 16 µg/mL (≈ 6.71 µM). The “MIC (μg/mL) S. aureus CICC25138” value against S. aureus CICC25138 came to 16 µg/mL (≈ 6.71 µM). Further, the “MIC (μg/mL) S. aureus CMCC26003” value against S. aureus CMCC26003 came out at 4 µg/mL (≈ 1.68 µM).
